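At the GI50, growth is halved. TGI: concentration producing complete growth inhibition.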
Legend:
Assay in all cases: NCI-60 cell line screen, 384-well format
MOLT-4 leukemia = test system: MOLT-4 leukemia
CCRF-CEM leukemia = test system: CCRF-CEM leukemia
HOP-62 NSCLC = test system: HOP-62 NSCLC
UACC-257 melanoma = test system: UACC-257 melanoma
HS 578T breast = test system: HS 578T breast
SF-539 CNS = test system: SF-539 CNS
OVCAR-3 ovarian = test system: OVCAR-3 ovarian
MDA-MB-231 breast = test system: MDA-MB-231 breast
SF-268 CNS = test system: SF-268 CNS
UACC-62 melanoma = test system: UACC-62 melanoma
MALME-3M melanoma = test system: MALME-3M melanoma
NCI-H23 lung = test system: NCI-H23 lung
NCI-H322M lung = test system: NCI-H322M lung
SF-295 CNS = test system: SF-295 CNS
HOP-92 NSCLC = test system: HOP-92 NSCLC
PC-3 prostate = test system: PC-3 prostate
EKVX NSCLC = test system: EKVX NSCLC
KM12 colon = test system: KM12 colon
IGROV1 ovarian = test system: IGROV1 ovarian
DU-145 prostate = test system: DU-145 prostate
A549 NSCLC = test system: A549 NSCLC
SNB-19 CNS = test system: SNB-19 CNS
UO-31 renal = test system: UO-31 renal
NCI/ADR-RES ovarian = test system: NCI/ADR-RES ovarian
MDA-MB-468 breast = test system: MDA-MB-468 breast
SK-MEL-28 melanoma = test system: SK-MEL-28 melanoma
TK-10 renal = test system: TK-10 renal
786-0 renal = test system: 786-0 renal
A498 renal = test system: A498 renal

Question: How did the GI50 (MOLT-4 leukemia) turn out when `C=CC(=O)N1CCN(c2nc(=O)n(-c3c(C)ccnc3C(C)C)c3nc(-c4c(O)cccc4F)c(F)cc23)[C@@H](C)C1` was run?
Answer: 9.94 µM

Question: And the TGI (MOLT-4 leukemia)?
Answer: 22.2 µM

Question: And the GI50 (CCRF-CEM leukemia)?
Answer: 18.8 µM

Question: What about the TGI (CCRF-CEM leukemia) of the same compound?
Answer: 34.2 µM

Question: And the GI50 (HOP-62 NSCLC)?
Answer: 0.0543 µM

Question: And the TGI (HOP-62 NSCLC)?
Answer: 26 µM

Question: And the GI50 (UACC-257 melanoma)?
Answer: 37.1 µM

Question: And the TGI (UACC-257 melanoma)?
Answer: > 100 µM

Question: What about the GI50 (HS 578T breast) of the same compound?
Answer: 13.9 µM

Question: And the TGI (HS 578T breast)?
Answer: 35.1 µM

Question: What about the GI50 (SF-539 CNS) of the same compound?
Answer: 17.4 µM

Question: What about the TGI (SF-539 CNS) of the same compound?
Answer: 33.3 µM

Question: What about the GI50 (OVCAR-3 ovarian) of the same compound?
Answer: 22 µM

Question: And the TGI (OVCAR-3 ovarian)?
Answer: 50.8 µM

Question: What about the GI50 (MDA-MB-231 breast) of the same compound?
Answer: 24.3 µM

Question: And the TGI (MDA-MB-231 breast)?
Answer: 57 µM

Question: And the GI50 (SF-268 CNS)?
Answer: 27.8 µM

Question: What about the TGI (SF-268 CNS) of the same compound?
Answer: 79.8 µM

Question: What about the GI50 (UACC-62 melanoma) of the same compound?
Answer: 43.5 µM

Question: And the TGI (UACC-62 melanoma)?
Answer: > 100 µM

Question: What about the GI50 (MALME-3M melanoma) of the same compound?
Answer: 14.7 µM

Question: And the TGI (MALME-3M melanoma)?
Answer: 35.3 µM

Question: And the TGI (NCI-H23 lung)?
Answer: 0.592 µM

Question: What about the GI50 (NCI-H322M lung) of the same compound?
Answer: 44.6 µM

Question: And the TGI (NCI-H322M lung)?
Answer: > 100 µM

Question: And the GI50 (SF-295 CNS)?
Answer: 33.4 µM

Question: What about the TGI (SF-295 CNS) of the same compound?
Answer: > 88.3 µM

Question: And the GI50 (HOP-92 NSCLC)?
Answer: 48.6 µM

Question: And the TGI (HOP-92 NSCLC)?
Answer: > 100 µM

Question: What about the GI50 (PC-3 prostate) of the same compound?
Answer: 35.9 µM

Question: What about the TGI (PC-3 prostate) of the same compound?
Answer: > 94.4 µM

Question: And the GI50 (EKVX NSCLC)?
Answer: 37.1 µM

Question: And the TGI (EKVX NSCLC)?
Answer: > 100 µM

Question: What about the GI50 (KM12 colon) of the same compound?
Answer: 31.5 µM

Question: What about the TGI (KM12 colon) of the same compound?
Answer: > 75.8 µM

Question: And the GI50 (IGROV1 ovarian)?
Answer: 27 µM

Question: What about the TGI (IGROV1 ovarian) of the same compound?
Answer: 71 µM

Question: What about the GI50 (DU-145 prostate) of the same compound?
Answer: 25.3 µM

Question: And the TGI (DU-145 prostate)?
Answer: 74.7 µM

Question: And the GI50 (A549 NSCLC)?
Answer: 32.5 µM

Question: And the TGI (A549 NSCLC)?
Answer: > 85.6 µM

Question: And the GI50 (SNB-19 CNS)?
Answer: 53.9 µM

Question: And the TGI (SNB-19 CNS)?
Answer: > 100 µM

Question: What about the GI50 (UO-31 renal) of the same compound?
Answer: 69.7 µM

Question: And the TGI (UO-31 renal)?
Answer: > 100 µM

Question: What about the GI50 (NCI/ADR-RES ovarian) of the same compound?
Answer: > 100 µM

Question: And the TGI (NCI/ADR-RES ovarian)?
Answer: > 100 µM

Question: And the GI50 (MDA-MB-468 breast)?
Answer: 13 µM

Question: And the TGI (MDA-MB-468 breast)?
Answer: 37.2 µM

Question: What about the GI50 (SK-MEL-28 melanoma) of the same compound?
Answer: > 100 µM

Question: What about the TGI (SK-MEL-28 melanoma) of the same compound?
Answer: > 100 µM

Question: What about the GI50 (TK-10 renal) of the same compound?
Answer: 46.2 µM

Question: And the TGI (TK-10 renal)?
Answer: > 100 µM

Question: And the GI50 (786-0 renal)?
Answer: 21.4 µM

Question: What about the TGI (786-0 renal) of the same compound?
Answer: 44.4 µM

Question: What about the GI50 (A498 renal) of the same compound?
Answer: 31.1 µM

Question: And the TGI (A498 renal)?
Answer: > 82.8 µM
